Reference: patent publication US20230009608A1, “GRK2 INHIBITORS AND USES THEREOF” (Cygnal Therapeutics, Inc., priority 2020, published 2023)
Where two headings read alike, the source gives them in different places.

Experiments:
GRK2 = biological target: T1, GRK2 (Homo sapiens, UniProt P25098); assay: ADPGlo GRK2 Inhibition Assay (Example 8); format: biochemical; conditions: read-out: A: Enzymatic GRK2: IC50 (nM) (Example 8)
T1 construct: purchased SignalChem A14-10G
T1 sequence (P25098 1-689): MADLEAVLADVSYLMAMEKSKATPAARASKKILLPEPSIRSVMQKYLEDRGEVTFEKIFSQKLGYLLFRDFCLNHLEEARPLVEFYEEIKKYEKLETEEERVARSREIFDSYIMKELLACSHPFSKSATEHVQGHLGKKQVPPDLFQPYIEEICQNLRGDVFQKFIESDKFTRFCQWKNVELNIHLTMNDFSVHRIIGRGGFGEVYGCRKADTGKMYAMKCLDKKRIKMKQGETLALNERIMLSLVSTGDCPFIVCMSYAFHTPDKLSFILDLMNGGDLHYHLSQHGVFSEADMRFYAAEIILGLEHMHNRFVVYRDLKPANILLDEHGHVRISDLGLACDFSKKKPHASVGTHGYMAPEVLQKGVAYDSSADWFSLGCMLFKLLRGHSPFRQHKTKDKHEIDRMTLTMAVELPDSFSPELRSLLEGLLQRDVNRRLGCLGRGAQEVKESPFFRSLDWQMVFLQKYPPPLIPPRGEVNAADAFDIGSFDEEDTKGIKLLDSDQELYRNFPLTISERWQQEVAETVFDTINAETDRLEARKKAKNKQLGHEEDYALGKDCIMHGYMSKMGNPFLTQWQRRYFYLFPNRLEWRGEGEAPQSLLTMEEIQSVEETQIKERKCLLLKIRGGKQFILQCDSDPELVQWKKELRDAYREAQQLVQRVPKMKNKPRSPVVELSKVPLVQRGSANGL
Outline: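 GRK2 (15 nM 2× enzyme solution) was preincubated 15 min with compound, then reacted 180 min at room temperature with 2× mix of 20 μM ATP plus GRKtide in HEPES pH 7.5, MgCl2, Tween-20, DTT. ADP was detected by ADP-Glo luminescence. Percent inhibition was normalised to enzyme and no-enzyme controls, with dose-response curves from threefold dilutions starting at 100 μM.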

[1] = test system: PAXF1657 control empty vector cell line; assay: 7-day proliferation assay, PAXF1657 control empty vector cell line (Example 9); format: cell-based; conditions: 168 h; Cell Line: PAXF1657 empty vector (EV) cell line; 7-day; read-out: C: 7-day proliferation assay: IC50 GeoMean
Outline: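 500 cells/well, RPMI1640 + 10% H.I. FBS, adhered overnight at 37° C. Compound 10-pt dilution, 30 μM-0.0002 μM final, 0.3% DMSO. 3 d, media + compound replaced, further 4 d. Viability by CellTiter-Glo; untreated plates read at time of dosing.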

[2] = Enzyme Assay A, ADPGlo (Example 8)

Cc1cccc2ncc(CNC(=O)c3cccc(NCc4nnc(-c5ccncc5)n4CCO)c3)n12
IC50 (GRK2; ADPGlo GRK2 enzyme assay): 5.86 nM
IC50 [1]: > 30000 nM

Cn1c(CNc2cccc(C(=O)NCc3ccc(F)c(F)c3)c2)nnc1-c1ccncn1
IC50 (GRK2; ADPGlo GRK2 enzyme assay): 63.7 nM
IC50 [1]: 9330 nM

Cn1c(CNc2cccc(C(=O)N[C@H]3COCc4ccccc43)c2)nnc1-c1ccncc1F
IC50 (GRK2; [2]): 32.5 nM
IC50 [1]: 61.5 nM

Cc1nc(C)c(CNC(=O)c2cccc(NCc3nnc(-c4ccncc4)[nH]3)c2)nc1C
IC50 (GRK2; [2]): 28 nM
IC50 [1]: > 10000 nM

Cc1nn(C)cc1CNC(=O)c1cccc(NCc2nnc(-c3ccncn3)n2C)c1
IC50 (GRK2; [2]): 19 nM
IC50 [1]: 6220 nM

COc1ccccc1C(CO)NC(=O)c1cccc(NCc2nnc(-c3ccncn3)n2C)c1 (centres unmarked)
IC50 (GRK2; ADPGlo GRK2 enzyme assay): 45.4 nM
IC50 [1]: > 13000 nM

CNS(=O)(=O)c1cccc(F)c1CNC(=O)c1cccc(NCc2nnc(-c3ccncc3F)n2C)c1
IC50 (GRK2; [2]): 33.9 nM
IC50 [1]: 2700 nM

CCCCCOc1ccc2c(c1)[C@@H](NC(=O)c1cccc(NCc3nnc(-c4ccncn4)n3C)c1)CCO2
IC50 (GRK2; ADPGlo GRK2 enzyme assay): 12.6 nM
IC50 [1]: 2130 nM

Cc1csc(C2(NC(=O)c3cccc(NCc4nnc(-c5ccncn5)n4C)c3)CCC2)n1
IC50 (GRK2; [2]): 140 nM
IC50 [1]: 445 nM

Cn1c(CNc2cccc(C(=O)NC3CCc4c(O)cccc43)c2)nnc1-c1ccncn1 (centres unmarked)
IC50 (GRK2; ADPGlo GRK2 enzyme assay): 47.2 nM
IC50 [1]: 8840 nM

Cn1c(CNc2cccc(C(=O)N[C@H]3COc4cc(F)ccc43)c2)nnc1-c1ccncc1F
IC50 (GRK2; [2]): 111 nM
IC50 [1]: > 30000 nM

Cn1c(CNc2cccc(C(=O)NCc3ccccc3NS(C)(=O)=O)c2)nnc1-c1ccncn1
IC50 (GRK2; ADPGlo GRK2 enzyme assay): 32.1 nM
IC50 [1]: > 30000 nM

CN1CC[C@@H](NC(=O)c2cccc(NCc3nnc(-c4ccncn4)n3C)c2)c2ccccc21
IC50 (GRK2; ADPGlo GRK2 enzyme assay): 21 nM
IC50 [1]: > 30000 nM

Cc1cc(C)c(CNC(=O)c2cccc(NCc3nnc(-c4ccncn4)n3C)c2)cn1
IC50 (GRK2; ADPGlo GRK2 enzyme assay): 17.8 nM
IC50 [1]: 803 nM

COc1cccnc1CNC(=O)c1cccc(NCc2nnc(-c3ccncn3)n2C)c1
IC50 (GRK2; [2]): 290 nM
IC50 [1]: > 10000 nM

Cc1ccccc1C(CO)NC(=O)c1cccc(NCc2nnc(-c3ccncn3)n2C)c1 (centres unmarked)
IC50 (GRK2; [2]): 33 nM
IC50 [1]: 8660 nM

COC[C@H](NC(=O)c1cccc(NCc2nnc(-c3ccncn3)n2C)c1)c1ccccn1
IC50 (GRK2; [2]): 54 nM
IC50 [1]: > 10000 nM

O=C(N[C@@H]1COCc2ccccc21)c1cccc(NCc2nnc(-c3ccncc3)n2CCO)c1
IC50 (GRK2; [2]): 9.28 nM
IC50 [1]: > 30000 nM

CNS(=O)(=O)c1cccc(F)c1CNC(=O)c1cccc(NCc2nnc3n2CCOc2cnccc2-3)c1
IC50 (GRK2; [2]): 85.3 nM
IC50 [1]: 2840 nM

COc1ncc(Br)cc1CNC(=O)c1cccc(NCc2nnc(-c3ccncc3)[nH]2)c1
IC50 (GRK2; ADPGlo GRK2 enzyme assay): 10.2 nM
IC50 [1]: 21700 nM

Cc1nncc(CNC(=O)c2cccc(NCc3nnc(-c4ccncn4)n3C)c2)c1C
IC50 (GRK2; ADPGlo GRK2 enzyme assay): 14.3 nM
IC50 [1]: 1460 nM

COC[C@H](NC(=O)c1cccc(NCc2nnc(-c3ccncn3)n2C)c1)c1cccnc1
IC50 (GRK2; [2]): 46 nM
IC50 [1]: 6110 nM

Cn1c(CNc2cccc(C(=O)NCc3c(Cl)cncc3Cl)c2)nnc1-c1ccncn1
IC50 (GRK2; [2]): 31 nM
IC50 [1]: 4320 nM

COc1cccc(CNC(=O)c2cccc(NCc3nnc(-c4ccncn4)n3C)c2)c1F
IC50 (GRK2; [2]): 10 nM
IC50 [1]: > 10000 nM

Cn1c(CNc2cccc(C(=O)NC(CCO)c3ccccc3)c2)nnc1-c1ccncn1 (centres unmarked)
IC50 (GRK2; ADPGlo GRK2 enzyme assay): 26.4 nM
IC50 [1]: 1090 nM

O=C(NCc1cn[nH]c1C(F)F)c1cccc(NCc2nnc(-c3ccncc3)[nH]2)c1
IC50 (GRK2; [2]): 19 nM
IC50 [1]: > 10000 nM

COc1cccc([C@H](C)NC(=O)c2cccc(NCc3nnc(-c4ccncn4)n3CCO)c2)c1
IC50 (GRK2; ADPGlo GRK2 enzyme assay): 2.41 nM
IC50 [1]: 30.7 nM

CCn1nc(C)c(CNC(=O)c2cccc(NCc3nnc(-c4ccncc4)[nH]3)c2)n1
IC50 (GRK2; [2]): 18 nM
IC50 [1]: 3110 nM

COCC(NC(=O)c1cccc(NCc2nnc(-c3ccncn3)n2C)c1)c1ccc(F)c(F)c1 (centres unmarked)
IC50 (GRK2; [2]): 46 nM
IC50 [1]: 280 nM

CC(NC(=O)c1cccc(NCc2nnc(-c3ccncn3)n2C)c1)c1ncccc1Br (centres unmarked)
IC50 (GRK2; [2]): 9.4 nM
IC50 [1]: > 10000 nM

CCOc1ccc(CNC(=O)c2cccc(NCc3nnc(-c4ccncn4)n3C)c2)cc1
IC50 (GRK2; ADPGlo GRK2 enzyme assay): 35.3 nM
IC50 [1]: 1200 nM
